Test results published in patent US10351609B2, “Cell-based assay for determining mTOR activity” (Medical Diagnostic Laboratories, LLC, priority 2016, dated 2019).
Where two headings read alike, the source gives them in different places.

What was measured:
[1] = test system: phosphorylation of the ribosomal protein S6; details: Guichard et al., 2015; read-out: IC50 for inhibition of phosphorylation of the ribosomal protein S6; cited from earlier work
WT mTOR [2] = target: T1, WT mTOR (Homo sapiens, UniProt P42345); assay: 3A1 clone stably expressing SB-eIF4E, transiently expressing LB-4E-BP2 and WT mTOR; format: cell-based; details: 3A1 stably SB-eIF4E, concentration curves at least 5 logs, FIG. 16
T1 construct: our assay has the ability to measure the function of full-length mTOR and its genetic variants; expressed in transfected cells
Description: (§1) To overcome this issue, we created a stable cell pool with the 3A1 clone, stably expressing only SB-eIF4E.

S2035I mTOR [3] = target: T2, S2035I mTOR (Homo sapiens, UniProt P42345, S2035I); assay: 3A1 clone stably expressing SB-eIF4E, transiently expressing LB-4E-BP2 and S2035I mTOR; format: cell-based; details: 3A1 stably SB-eIF4E, concentration curves at least 5 logs, FIG. 16
T2 construct: our assay has the ability to measure the function of full-length mTOR and its genetic variants; expressed in transfected cells
Description: as §1

WT mTOR [4] = target: T1, WT mTOR; assay: B10 clone (4E-BP dKO, MTOR genomic modification) stably expressing SB-eIF4E, transient LB-4E-BP2 and WT mTOR; format: cell-based; details: FIG. 18
Description: With the goal of our assay to measure the effects of mTOR mutations in combination with different types of mTOR inhibitors, we performed our assay using the B10 cell clone stably expressing SB-eIF4E and transiently expressing LB-4E-BP2 and either WT or L2185A mTOR.

mTOR [5] = target: T3, mTOR (Homo sapiens, UniProt P42345); assay: 3A1 clone with stable expression of SB-eIF4E/LB-4E-BP2 (stable pool and single-cell clones); format: cell-based; details: 3A1 stable cell line pool expressing SB-eIF4E/LB-4E-BP2, FIG. 12
Method: Taking the 3A1 clone, we created a stable cell line pool (cells that underwent a minimum of 2 weeks of hygromycin selection) with stable expression of SB-eIF4E/ LB-4E-BP2.
Three to five days after transfection, the transfected cells were trypsinized and replated on to 6-count of 10 cm plates containing 300 μg/ml of hygromycin (ThermoFisher). For 7 days, media was replaced every 2-3 days with fresh hygromycin, after which cells were trypsinized, pooled and concentrated, and counted for plating as single cells on to 96-well plates. Fifty ml containing 400 cells were plated on to 5-count of 96-well plates with each well containing 100 μl of media+cell. DMEM conditioned with previous incubation with HEK293 cells was saved, filtered, and used for single-cell plating. The remainder of the hygromycin treated cells was then pooled and used as “stable pools” for experimentation.

mTOR [6] = target: T3, mTOR; format: cell-based; details: 3A1 clone transiently transfected with SB-eIF4E/LB-4E-BP2, FIG. 11
Description: We compared single-cell clone termed “3A1” (FIG. 10A,B) with single-cell clone termed “1C3” (FIG. 10C,D) in the assay containing either LB-4E-BP1(Figure 10A,C) or LB-4E-BP2 (FIG. 10B,D).

S2035I mTOR [7] = target: T2, S2035I mTOR; assay: B10 clone stably expressing SB-eIF4E, transient LB-4E-BP2 and S2035I mTOR; format: cell-based; details: FIG. 18
cellular proliferation = details: Hsieh et al., 2012; read-out: EC50 for the inhibition of cellular proliferation; cited from earlier work
[8] = test system: phosphorylation of 4E-BP1; details: read-out: reported IC50 in inhibiting phosphorylation of 4E-BP1; Western blot; Sedrani et al., 1998; cited from earlier work

SMILES	IC50 [1] [nM]	concentration dependence of signal (WT mTOR [2])	concentration dependence of signal (S2035I mTOR [3])	concentration dependence of signal (WT mTOR [4])	concentration dependence of luminescence (mTOR [5])	concentration dependence of luminescence (mTOR [6])	concentration dependence of signal (S2035I mTOR [7])	EC50 (cellular proliferation) [nM]	IC50 [8] [nM]
CNC(=O)c1cccc(-c2ccc3c(N4CCOC[C@@H]4C)nc(N4CCOC[C@@H]4C)nc3n2)c1 [AZD2014]	210	concentration-dependent increase in signal	concentration-dependent increase	concentration-dependent increase for both mTORs	concentration-dependent activation of luminescence	concentration dependent activation	concentration-dependent increase for both mTORs		
CO[C@H]1CC[C@H](N2C(=O)CNc3ncc(-c4ccc(C(C)(C)O)nc4)nc32)CC1 [CC223]					concentration-dependent increase in luminescence				
CC(C)n1nc(-c2ccc3oc(N)nc3c2)c2c(N)ncnc21 [INK128]		concentration-dependent increase in signal	concentration-dependent increase	concentration-dependent increase for both mTORs	concentration-dependent activation of luminescence	concentration dependent activation	concentration-dependent increase for both mTORs	17	
CO[C@@H](C)Cn1c(=O)n(C)c2cnc3ccc(-c4cncc(C(C)(C)O)c4)cc3c21 [LY3023414]					concentration-dependent increase in luminescence				
CCc1cncnc1N1CCN(Cc2nc3ccc(C(F)(F)F)cc3[nH]2)CC1 [PF4708671]					did not				
CO[C@H]1C[C@@H]2CC[C@@H](C)[C@@](O)(O2)C(=O)C(=O)N2CCCC[C@H]2C(=O)O[C@H]([C@H](C)C[C@@H]2CC[C@@H](OCCO)[C@H](OC)C2)CC(=O)[C@H](C)/C=C(\C)[C@@H](O)[C@@H](OC)C(=O)[C@H](C)C[C@H](C)/C=C/C=C/C=C/1C [everolimus]		concentration-dependent increase in signal	rapamycin resistance		concentration-dependent activation of luminescence	concentration dependent activation	cleaner difference between the WT and S2035I mTOR		1.6 to 2.4
